Assay results published in US4335249A, “Herbicidal diphenyl ethers, sulfides, sulfoxides and sulfones” (Rohm and Haas Company, priority 1976, dated 1982).

Columns and labels:
Format in all cases: in vivo
[1] = system: downybrome (Bromus tectorum); assay: Preemergence herbicidal activity, downybrome; settings: Bromus tectorum, pre-emergence, 336 h, Pre, 2 lb/A
Procedure, shortened: (§1)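 Plants were scored as mean % killed about two weeks after treatment. Postemergence species were sprayed two weeks after germination and preemergence species immediately after sowing. The spray was an acetone/water solution at the stated lb/A rate in a 50 gal/acre carrier.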

marigold (Tagetes spp.) [2] = assay: Postemergence herbicidal activity, marigold; settings: post-emergence, 336 h, 2 lb/A
Procedure, shortened: as §1

[3] = system: barnyardgrass (Echinochloa crusgalli); assay: Preemergence herbicidal activity, barnyardgrass; settings: Echinochloa crus-galli, pre-emergence, 336 h; Pre, 2 lb/A
Procedure, shortened: (§2)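 Seeds were sown in soil flats and sprayed either immediately after planting (preemergence) or two weeks after germination (postemergence). The test compound was dissolved in acetone, diluted with water and applied at a carrier volume equivalent to 50 gallons per acre, dosed in pounds per acre (lb/A).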

wild oats (Avena fatua) [4] = assay: Preemergence herbicidal activity, wild oats; settings: Avena fatua, pre-emergence, 336 h, Pre, 2 lb/A; read-out: % control, Wild oat
Procedure, shortened: as §1

marigold (Tagetes spp.) [5] = assay: Preemergence herbicidal activity, marigold; settings: pre-emergence, 336 h, 2 lb/A
Procedure, shortened: as §1

[6] = system: morningglory (Ipomoca spp.); assay: Preemergence herbicidal activity, morningglory; settings: Ipomoea, pre-emergence, 336 h, 2 lb/A
Procedure, shortened: as §1

foxtail (Setaria spp.) [7] = assay: Postemergence herbicidal activity, foxtail; settings: Setaria, post-emergence, 336 h, Post, 2 lb/A
Procedure, shortened: as §1

[8] = system: yellow nutsedge (Cyperus esculentus); assay: Preemergence herbicidal activity, yellow nutsedge; settings: Cyperus, pre-emergence, 336 h, 2 lb/A
Procedure, shortened: as §1

wild oats (Avena fatua) [9] = assay: Postemergence herbicidal activity, wild oats; settings: Avena fatua, post-emergence, 336 h, Post, 2 lb/A; read-out: % control, Wild oat
Procedure, shortened: as §1

[10] = system: tomato (Lycopersicon esculentum); assay: Postemergence herbicidal activity, tomato; settings: Solanum lycopersicum, post-emergence, 336 h, Post, 2 lb/A
Procedure, shortened: as §1

[11] = system: yellow nutsedge (Cyperus esculentus); assay: Postemergence herbicidal activity, yellow nutsedge; settings: Cyperus, post-emergence, 336 h, 2 lb/A
Procedure, shortened: as §1

[12] = system: velvetleaf (Abutilon theophrasti); assay: Postemergence herbicidal activity, velvetleaf; settings: Abutilon theophrasti, post-emergence, 336 h, 2 lb/A
Procedure, shortened: as §2

foxtail (Setaria spp.) [13] = assay: Preemergence herbicidal activity, foxtail; settings: Setaria, pre-emergence, 336 h; Pre, 2 lb/A
Procedure, shortened: as §1

[14] = system: cocklebur (Xanthium pensylvanicum); assay: Preemergence herbicidal activity, cocklebur; settings: Xanthium strumarium, pre-emergence, 336 h, 2 lb/A
Procedure, shortened: as §1

[15] = system: cocklebur (Xanthium pensylvanicum); assay: Postemergence herbicidal activity, cocklebur; settings: Xanthium strumarium, post-emergence, 336 h, 2 lb/A
Procedure, shortened: as §1

[16] = system: tomato (Lycopersicon esculentum); assay: Preemergence herbicidal activity, tomato; settings: Solanum lycopersicum, pre-emergence, 336 h; Pre, 2 lb/A
Procedure, shortened: as §1

[17] = system: downybrome (Bromus tectorum); assay: Postemergence herbicidal activity, downybrome; settings: Bromus tectorum, post-emergence, 336 h, Post, 2 lb/A
Procedure, shortened: as §1

[18] = system: barnyardgrass (Echinochloa crusgalli); assay: Postemergence herbicidal activity, barnyardgrass; settings: Echinochloa crus-galli, post-emergence, 336 h; Post, 2 lb/A
Procedure, shortened: as §2

[19] = system: morningglory (Ipomoca spp.); assay: Postemergence herbicidal activity, morningglory; settings: Ipomoea, post-emergence, 336 h, 2 lb/A
Procedure, shortened: as §1

[20] = system: velvetleaf (Abutilon theophrasti); assay: Preemergence herbicidal activity, velvetleaf; settings: Abutilon theophrasti, pre-emergence, 336 h; Pre, 2 lb/A
Procedure, shortened: as §1

CCOC(=O)C(C)Oc1cccc(Oc2ccc(C(F)(F)F)cc2Cl)c1 (stereo not shown) [Example 2]
pest or weed control at 2241.7 g/ha [1]: 0% | pest or weed control at 2241.7 g/ha (marigold (Tagetes spp.) [2]): 90% | pest or weed control at 2241.7 g/ha [3]: 30% | pest or weed control at 2241.7 g/ha (wild oats (Avena fatua) [4]): 20% | pest or weed control at 2241.7 g/ha (marigold (Tagetes spp.) [5]): 90% | pest or weed control at 2241.7 g/ha [6]: 0% | pest or weed control at 2241.7 g/ha (foxtail (Setaria spp.) [7]): 50% | pest or weed control at 2241.7 g/ha [8]: 0% | pest or weed control at 2241.7 g/ha (wild oats (Avena fatua) [9]): 50% | pest or weed control at 2241.7 g/ha [10]: 100% | pest or weed control at 2241.7 g/ha [11]: 0% | pest or weed control at 2241.7 g/ha [12]: 100% | pest or weed control at 2241.7 g/ha (foxtail (Setaria spp.) [13]): 100% | pest or weed control at 2241.7 g/ha [14]: 0% | pest or weed control at 2241.7 g/ha [15]: 90% | pest or weed control at 2241.7 g/ha [16]: 100% | pest or weed control at 2241.7 g/ha [17]: 40% | pest or weed control at 2241.7 g/ha [18]: 60% | pest or weed control at 2241.7 g/ha [19]: 100% | pest or weed control at 2241.7 g/ha [20]: 100%

CCOC(=O)C(C)Oc1ccc(Oc2ccc(C(F)(F)F)cc2C#N)cc1 (stereo not shown) [Example 37]
pest or weed control at 2241.7 g/ha [1]: 95% | pest or weed control at 2241.7 g/ha (marigold (Tagetes spp.) [2]): 10% | pest or weed control at 2241.7 g/ha [3]: 100% | pest or weed control at 2241.7 g/ha (wild oats (Avena fatua) [4]): 0% | pest or weed control at 2241.7 g/ha (marigold (Tagetes spp.) [5]): 0% | pest or weed control at 2241.7 g/ha [6]: 40% | pest or weed control at 2241.7 g/ha (foxtail (Setaria spp.) [7]): 95% | pest or weed control at 2241.7 g/ha [8]: 0% | pest or weed control at 2241.7 g/ha (wild oats (Avena fatua) [9]): 90% | pest or weed control at 2241.7 g/ha [10]: 30% | pest or weed control at 2241.7 g/ha [11]: 0% | pest or weed control at 2241.7 g/ha [12]: 0% | pest or weed control at 2241.7 g/ha (foxtail (Setaria spp.) [13]): 60% | pest or weed control at 2241.7 g/ha [14]: 0% | pest or weed control at 2241.7 g/ha [15]: 30% | pest or weed control at 2241.7 g/ha [16]: 20% | pest or weed control at 2241.7 g/ha [17]: 90% | pest or weed control at 2241.7 g/ha [18]: 100% | pest or weed control at 2241.7 g/ha [19]: 10% | pest or weed control at 2241.7 g/ha [20]: 20%

CCOC(=O)CCC(C)Oc1ccc(Oc2ccc(C(F)(F)F)cc2Cl)cc1 (stereo not shown) [Example 38]
pest or weed control at 2241.7 g/ha [1]: 0% | pest or weed control at 2241.7 g/ha (marigold (Tagetes spp.) [2]): 0% | pest or weed control at 2241.7 g/ha [3]: 90% | pest or weed control at 2241.7 g/ha (wild oats (Avena fatua) [4]): 0% | pest or weed control at 2241.7 g/ha (marigold (Tagetes spp.) [5]): 0% | pest or weed control at 2241.7 g/ha [6]: 0% | pest or weed control at 2241.7 g/ha (foxtail (Setaria spp.) [7]): 100% | pest or weed control at 2241.7 g/ha [8]: 0% | pest or weed control at 2241.7 g/ha (wild oats (Avena fatua) [9]): 99% | pest or weed control at 2241.7 g/ha [10]: 0% | pest or weed control at 2241.7 g/ha [11]: 0% | pest or weed control at 2241.7 g/ha [12]: 0% | pest or weed control at 2241.7 g/ha (foxtail (Setaria spp.) [13]): 100% | pest or weed control at 2241.7 g/ha [14]: 0% | pest or weed control at 2241.7 g/ha [15]: 0% | pest or weed control at 2241.7 g/ha [16]: 0% | pest or weed control at 2241.7 g/ha [17]: 90% | pest or weed control at 2241.7 g/ha [18]: 100% | pest or weed control at 2241.7 g/ha [19]: 0% | pest or weed control at 2241.7 g/ha [20]: 0%

CCCCCCOC(=O)C(C)Oc1ccc(Oc2ccc(C(F)(F)F)cc2Cl)cc1 (stereo not shown) [Example 36]
pest or weed control at 2241.7 g/ha [1]: 0% | pest or weed control at 2241.7 g/ha (marigold (Tagetes spp.) [2]): 0% | pest or weed control at 2241.7 g/ha [3]: 100% | pest or weed control at 2241.7 g/ha (wild oats (Avena fatua) [4]): 0% | pest or weed control at 2241.7 g/ha (marigold (Tagetes spp.) [5]): 0% | pest or weed control at 2241.7 g/ha [6]: 0% | pest or weed control at 2241.7 g/ha (foxtail (Setaria spp.) [7]): 100% | pest or weed control at 2241.7 g/ha [8]: 0% | pest or weed control at 2241.7 g/ha (wild oats (Avena fatua) [9]): 100% | pest or weed control at 2241.7 g/ha [10]: 0% | pest or weed control at 2241.7 g/ha [11]: 0% | pest or weed control at 2241.7 g/ha [12]: 0% | pest or weed control at 2241.7 g/ha (foxtail (Setaria spp.) [13]): 100% | pest or weed control at 2241.7 g/ha [14]: 0% | pest or weed control at 2241.7 g/ha [15]: 0% | pest or weed control at 2241.7 g/ha [16]: 0% | pest or weed control at 2241.7 g/ha [17]: 60% | pest or weed control at 2241.7 g/ha [18]: 100% | pest or weed control at 2241.7 g/ha [19]: 0% | pest or weed control at 2241.7 g/ha [20]: 0%

CCCCOC(=O)C(C)Oc1ccc(Oc2ccc(C(F)(F)F)cc2Cl)cc1 (stereo not shown) [Example 23]
pest or weed control at 2241.7 g/ha [1]: 99% | pest or weed control at 2241.7 g/ha (marigold (Tagetes spp.) [2]): 30% | pest or weed control at 2241.7 g/ha [3]: 100% | pest or weed control at 2241.7 g/ha (wild oats (Avena fatua) [4]): 80% | pest or weed control at 2241.7 g/ha (marigold (Tagetes spp.) [5]): 0% | pest or weed control at 2241.7 g/ha [6]: 0% | pest or weed control at 2241.7 g/ha (foxtail (Setaria spp.) [7]): 100% | pest or weed control at 2241.7 g/ha [8]: 30% | pest or weed control at 2241.7 g/ha (wild oats (Avena fatua) [9]): 100% | pest or weed control at 2241.7 g/ha [10]: 99% | pest or weed control at 2241.7 g/ha [11]: 0% | pest or weed control at 2241.7 g/ha [12]: 40% | pest or weed control at 2241.7 g/ha (foxtail (Setaria spp.) [13]): 100% | pest or weed control at 2241.7 g/ha [14]: 0% | pest or weed control at 2241.7 g/ha [15]: 0% | pest or weed control at 2241.7 g/ha [16]: 0% | pest or weed control at 2241.7 g/ha [17]: 99% | pest or weed control at 2241.7 g/ha [18]: 100% | pest or weed control at 2241.7 g/ha [19]: 20% | pest or weed control at 2241.7 g/ha [20]: 0%
